From US7595401B2, “Therapeutic compounds and their use in cancer” (Myriad Pharmaceuticals, Inc., priority 2006, dated 2009)
pIC50: −log10 of the molar value.

System: purified human Hsp90
Experiment: Binding Assay: fluorescence polarization with BODIPY-labeled geldanamycin
Details: 5 μM compound, BODIPY-GM 10 nM, Hsp90 30 nM
Outline: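 Compounds in 2% DMSO final compete with 10 nM BODIPY-GM for 30 nM purified human Hsp90, incubated overnight at room temperature in pH 7.3 HEPES buffer containing Na2MoO4 and DTT. Polarization (mP, ex/em 485/530) normalized to DMSO gives percent inhibition; autofluorescence-confounded data excluded.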

% Inhibition at 5 μM Compound Concentration [%] | SMILES
11 | Nc1ncn(CCC2CCN(C(=O)OCc3ccccc3)CC2)c2nc(Sc3cc4c(cc3Br)OCO4)nc1-2 [Example 410, Benzyl 4-(2-{6-amino-8-[(6-bromo-1,3-benzodioxol-5-yl)thio]-3H-purin-3-yl}ethyl)piperidine-1-carboxylate]
0 | CC(C)(C)OC(=O)N1CCCC1CCn1cnc(N)c2nc(Sc3cc4c(cc3Br)OCO4)nc1-2 (stereo not drawn) [Example 412, tert-Butyl 2-(2-{6-amino-8-[(6-bromo-1,3-benzodioxol-5-yl)thio]-3H-purin-3-yl}ethyl)pyrrolidine-1-carboxylate]
28 | CC(C)(C)OC(=O)N1CCC(CCn2cnc(N)c3nc(Sc4cc5c(cc4Br)OCO5)nc2-3)C1 (stereo not drawn) [Example 413, tert-Butyl 3-(2-{6-amino-8-[(6-bromo-1,3-benzodioxol-5-yl)thio]-3H-purin-3-yl}ethyl)pyrrolidine-1-carboxylate]
0 | CC(C)(C)OC(=O)N1CCCC[C@H]1CCn1cnc(N)c2nc(Sc3cc4c(cc3Br)OCO4)nc1-2 [Example 417, tert-Butyl (2S)-2-(2-{6-amino-8-[(6-bromo-1,3-benzodioxol-5-yl)thio]-3H-purin-3-yl}ethyl)piperidine-1-carboxylate]
7 | CC(C)(C)OC(=O)N1CC[C@H](CCn2cnc(N)c3nc(Sc4cc5c(cc4Br)OCO5)nc2-3)C1 [Example 420, tert-Butyl (3S)-3-(2-{6-amino-8-[(6-bromo-1,3-benzodioxol-5-yl)thio]-3 H-purin-3-yl}ethyl)pyrrolidine-1-carboxylate]
28 | Nc1ncn(CCC2CCCN2C(=O)OCc2ccccc2)c2nc(Sc3cc4c(cc3Br)OCO4)nc1-2 (stereo not drawn) [Example 421, Benzyl 2-(2-{6-amino-8-[(6-bromo-1,3-benzodioxol-5-yl)thio]-3H-purin-3-yl}ethyl)pyrrolidine-1-carboxylate]
6 | Nc1ncn(CCC2=CCN(Cc3ccccc3)CC2)c2nc(Sc3cc4c(cc3Br)OCO4)nc1-2 [Example 425, 3-[2-(1-Benzyl-1,2,3,6-tetrahydropyridin-4-yl)ethyl]-8-[(6-bromo-1,3-benzodioxol-5-yl)thio]-3H-purin-6-amine]

SMILES | % Inhibition at 5 μM Compound Concentration [%]
CN1C2CCC1CC(CCn1cnc(N)c3nc(Sc4cc5c(cc4Br)OCO5)nc1-3)C2 (stereo not drawn) [Example 427, 8-[(6-Bromo-1,3-benzodioxol-5-yl)thio]-3-{2-[(3-endo)-8-methyl-8-azabicyclo[3.2.1]oct-3-yl]ethyl}-3H-purin-6-amine] | 32

Same assay, conditions: BODIPY-GM 10 nM, Hsp90 30 nM

pIC50 | SMILES
< 5.10 | COc1ccc(OC)c(Sc2nc3c(N)ncnc3n2CCC2=CC3CC(C2)C3(C)C)c1 (stereo not drawn) [Example 405, 8-[(2,5-Dimethoxyphenyl)thio]-9-[2-(6,6-dimethylbicyclo[3.1.1]hept-2-en-3-yl)ethyl]-9H-purin-6-amine]
< 4.60 | CC1=NNC(=O)C1CCn1c(Sc2cc3c(cc2Br)OCO3)nc2c(N)ncnc21 (stereo not drawn) [Example 406, 4-(2-{6-Amino-8-[(6-bromo-1,3-benzodioxol-5-yl)thio]-9H-purin-9-yl}ethyl)-5-methyl-2,4-dihydro-3H-pyrazol-3-one]
< 4.60 | COc1ccc(OC)c(Sc2nc3c(N)ncnc3n2CCC2C(=O)NN=C2C)c1 (stereo not drawn) [Example 407, 4-(2-{6-Amino-8-[(2,5-dimethoxyphenyl)thio]-9H-purin-9-yl}ethyl)-5-methyl-2,4-dihydro-3H-pyrazol-3-one]
6.89 | Nc1ncnc2c1nc(Sc1cc3c(cc1Br)OCO3)n2CCC1CCN(C(=O)OCc2ccccc2)CC1 [Example 409, Benzyl 4-(2-{6-amino-8-[(6-bromo-1,3-benzodioxol-5-yl)thio]-9H-purin-9-yl}ethyl)piperidine-1-carboxylate]
6.27 | CC(C)(C)OC(=O)N1CCCC1CCn1c(Sc2cc3c(cc2Br)OCO3)nc2c(N)ncnc21 (stereo not drawn) [Example 414, tert-Butyl 2-(2-{6-amino-8-[(6-bromo-1,3-benzodioxol-5-yl)thio]-9H-purin-9-yl}ethyl)pyrrolidine-1-carboxylate]
6.34 | CC(C)(C)OC(=O)N1CCC(CCn2c(Sc3cc4c(cc3Br)OCO4)nc3c(N)ncnc32)C1 (stereo not drawn) [Example 415, tert-Butyl 3-(2-{6-amino-8-[(6-bromo-1,3-benzodioxol-5-yl)thio]-9H-purin-9-yl}ethyl)pyrrolidine-1-carboxylate]
6.70 | CC(C)(C)OC(=O)N1CCCC[C@H]1CCn1c(Sc2cc3c(cc2Br)OCO3)nc2c(N)ncnc21 [Example 416, tert-Butyl (2S)-2-(2-{6-amino-8-[(6-bromo-1,3-benzodioxol-5-yl)thio]-9H-purin-9-yl}ethyl)piperidine-1-carboxylate]
6.52 | CC(C)(C)OC(=O)N1CC[C@H](CCn2c(Sc3cc4c(cc3Br)OCO4)nc3c(N)ncnc32)C1 [Example 418, tert-Butyl (3R)-3-(2-{6-amino-8-[(6-bromo-1,3-benzodioxol-5-yl)thio]-9H-purin-9-yl}ethyl)pyrrolidine-1-carboxylate]
5.54 | Nc1ncnc2c1nc(Sc1cc3c(cc1Br)OCO3)n2CCC1CCCN1C(=O)OCc1ccccc1 (stereo not drawn) [Example 419, Benzyl 2-(2-{6-amino-8-[(6-bromo-1,3-benzodioxol-5-yl)thio]-9H-purin-9-yl}ethyl)pyrrolidine-1-carboxylate]
6.89 | CCNC(=O)N1CCC(CCn2c(Sc3cc4c(cc3Br)OCO4)nc3c(N)ncnc32)CC1 [Example 431, 4-(2-{6-Amino-8-[(6-bromo-1,3-benzodioxol-5-yl)thio]-9H-purin-9-yl}ethyl)-N-ethylpiperidine-1-carboxamide]
7.19 | CC(C)NC(=O)N1CCC(CCn2c(Sc3cc4c(cc3Br)OCO4)nc3c(N)ncnc32)CC1 [Example 432, 4-(2-{6-Amino-8-[(6-bromo-1,3-benzodioxol-5-yl)thio]-9H-purin-9-yl}ethyl)-N-isopropylpiperidine-1-carboxamide]
6.90 | CC(C)(C)NC(=O)N1CCC(CCn2c(Sc3cc4c(cc3Br)OCO4)nc3c(N)ncnc32)CC1 [Example 433, 4-(2-{6-Amino-8-[(6-bromo-1,3-benzodioxol-5-yl)thio]-9H-purin-9-yl}ethyl)-N-(tert-butyl)piperidine-1-carboxamide]
7.43 | CCOC(=O)CNC(=O)N1CCC(CCn2c(Sc3cc4c(cc3Br)OCO4)nc3c(N)ncnc32)CC1 [Example 434, Ethyl N-{[4-(2-{6-amino-8-[(6-bromo-1,3-benzodioxol-5-yl)thio]-9H-purin-9-yl}ethyl)piperidin-1-yl]carbonyl}glycinate]
6.71 | CCNC(=O)N1CCCC(CCn2c(Sc3cc4c(cc3Br)OCO4)nc3c(N)ncnc32)C1 (stereo not drawn) [Example 435, 3-(2-{6-Amino-8-[(6-bromo-1,3-benzodioxol-5-yl)thio]-9H-purin-9-yl}ethyl)-N-ethylpiperidine-1-carboxamide]
6.41 | CC(C)NC(=O)N1CCCC(CCn2c(Sc3cc4c(cc3Br)OCO4)nc3c(N)ncnc32)C1 (stereo not drawn) [Example 436, 3-(2-{6-Amino-8-[(6-bromo-1,3-benzodioxol-5-yl)thio]-9H-purin-9-yl}ethyl)-N-isopropylpiperidine-1-carboxamide]

SMILES | pIC50
CN1[C@@H]2CC[C@H]1C[C@@H](CCn1c(Sc3cc4c(cc3Br)OCO4)nc3c(N)ncnc31)C2 [Example 426, 8-[(6-Bromo-1,3-benzodioxol-5-yl)thio]-9-{2-[(3-endo)-8-methyl-8-azabicyclo[3.2.1]oct-3-yl]ethyl}-9H-purin-6-amine] | 6.82
